Data from US20200390899A1, “AMINOBENZAZEPINE COMPOUNDS, IMMUNOCONJUGATES, AND USES THEREOF” (BOLT BIOTHERAPEUTICS, INC., priority 2019, published 2020).
Where two headings read alike, the source gives them in different places.

How the values were obtained:
human TLR7 = biological target: T1, human TLR7 (Homo sapiens, UniProt Q9NYK1); experiment: HEK293 NFKB reporter assay, human TLR7; format: cell-based; conditions: HEK293 reporter cells expressing human TLR7, read-out: HEK293 hTLR7 EC50
T1 construct: host or cells: HEK293 reporter cells
T1 sequence (Q9NYK1 27-1049): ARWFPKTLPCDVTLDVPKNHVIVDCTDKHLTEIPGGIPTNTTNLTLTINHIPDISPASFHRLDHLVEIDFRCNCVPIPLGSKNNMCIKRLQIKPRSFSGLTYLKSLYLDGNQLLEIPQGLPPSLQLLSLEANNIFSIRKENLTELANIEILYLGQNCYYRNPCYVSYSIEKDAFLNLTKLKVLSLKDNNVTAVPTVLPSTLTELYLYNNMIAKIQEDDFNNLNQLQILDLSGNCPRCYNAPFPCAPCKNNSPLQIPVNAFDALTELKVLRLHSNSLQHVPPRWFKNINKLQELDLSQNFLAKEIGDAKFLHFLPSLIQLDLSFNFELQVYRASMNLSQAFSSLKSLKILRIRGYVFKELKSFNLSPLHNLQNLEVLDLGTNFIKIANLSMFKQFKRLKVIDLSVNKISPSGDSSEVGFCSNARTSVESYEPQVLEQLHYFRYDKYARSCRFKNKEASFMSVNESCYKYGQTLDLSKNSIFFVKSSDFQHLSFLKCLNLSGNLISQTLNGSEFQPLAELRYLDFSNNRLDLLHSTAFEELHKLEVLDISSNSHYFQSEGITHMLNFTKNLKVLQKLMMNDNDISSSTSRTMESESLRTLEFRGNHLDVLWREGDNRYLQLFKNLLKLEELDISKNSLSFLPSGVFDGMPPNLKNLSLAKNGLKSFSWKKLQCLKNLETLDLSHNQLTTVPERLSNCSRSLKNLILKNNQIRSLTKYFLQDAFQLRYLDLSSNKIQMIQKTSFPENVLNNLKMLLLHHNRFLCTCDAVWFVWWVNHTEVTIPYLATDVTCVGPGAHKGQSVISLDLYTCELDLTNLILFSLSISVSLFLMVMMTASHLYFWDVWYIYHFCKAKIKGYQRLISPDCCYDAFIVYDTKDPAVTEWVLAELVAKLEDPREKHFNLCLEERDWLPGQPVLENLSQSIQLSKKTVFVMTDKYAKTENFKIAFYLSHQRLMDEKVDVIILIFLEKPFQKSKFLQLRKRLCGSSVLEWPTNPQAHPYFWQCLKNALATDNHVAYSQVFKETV
Procedure: (§1) Each compound was synthesized and purified by the methods in the Examples provided herein, characterized by mass spectrometry, and shown to have the mass indicated. Activity against HEK293 NFKB reporter cells expressing human TLR7 or human TLR8 was measured according to Example 68.
(§2) HEK293 reporter cells expressing human TLR7 or human TLR8 were purchased from Invivogen and vendor protocols were followed for cellular propagation and experimentation. Briefly, cells were grown to 80-85% confluence at 5% CO2 in DMEM supplemented with 10% FBS, Zeocin, and Blasticidin. Cells were then seeded in 96-well flat plates at 4×10^4cells/well with substrate containing HEK detection medium and immunostimulatory molecules. Activity was measured using a plate reader at 620-655 nm wavelength.

human TLR8 = biological target: T2, human TLR8 (Homo sapiens, UniProt Q9NR97); experiment: HEK293 NFKB reporter assay, human TLR8; format: cell-based; conditions: HEK293 reporter cells expressing human TLR8, read-out: HEK293 hTLR8 EC50
T2 construct: host or cells: HEK293 reporter cells
T2 sequence (Q9NR97 27-1041): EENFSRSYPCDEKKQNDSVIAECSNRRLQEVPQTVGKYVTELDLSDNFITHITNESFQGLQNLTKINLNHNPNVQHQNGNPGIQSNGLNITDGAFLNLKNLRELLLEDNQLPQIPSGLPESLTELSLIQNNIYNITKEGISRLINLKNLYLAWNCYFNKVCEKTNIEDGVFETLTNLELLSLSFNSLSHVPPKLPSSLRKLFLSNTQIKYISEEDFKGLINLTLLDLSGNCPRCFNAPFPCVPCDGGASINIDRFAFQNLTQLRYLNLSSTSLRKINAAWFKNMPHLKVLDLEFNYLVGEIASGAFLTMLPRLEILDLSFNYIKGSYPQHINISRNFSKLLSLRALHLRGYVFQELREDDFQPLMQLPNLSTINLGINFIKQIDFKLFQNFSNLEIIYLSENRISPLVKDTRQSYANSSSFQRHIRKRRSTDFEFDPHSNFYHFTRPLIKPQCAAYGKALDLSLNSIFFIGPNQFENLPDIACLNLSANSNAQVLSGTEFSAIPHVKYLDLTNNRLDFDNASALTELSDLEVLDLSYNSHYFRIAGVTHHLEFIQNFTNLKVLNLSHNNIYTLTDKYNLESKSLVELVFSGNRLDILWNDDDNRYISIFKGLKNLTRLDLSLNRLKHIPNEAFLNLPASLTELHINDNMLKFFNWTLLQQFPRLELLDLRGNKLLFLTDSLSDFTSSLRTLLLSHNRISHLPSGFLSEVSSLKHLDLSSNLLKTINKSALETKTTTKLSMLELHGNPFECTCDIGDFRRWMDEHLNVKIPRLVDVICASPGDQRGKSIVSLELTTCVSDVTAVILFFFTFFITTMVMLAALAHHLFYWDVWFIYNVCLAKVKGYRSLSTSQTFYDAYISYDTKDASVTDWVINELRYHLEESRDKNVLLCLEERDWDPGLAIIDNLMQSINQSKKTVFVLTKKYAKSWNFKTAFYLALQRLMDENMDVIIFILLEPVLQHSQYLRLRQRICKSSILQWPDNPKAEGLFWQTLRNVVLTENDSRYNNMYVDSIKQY
Procedure: as §1, §2

| SMILES | EC50 (human TLR7; Table 1b) | EC50 (human TLR8; Table 1b) | EC50 (human TLR7; Table 1c) | EC50 (human TLR8; Table 1c) |
| --- | --- | --- | --- | --- |
| CCCN(Cc1ccc(CN2CCNCC2)cc1)C(=O)C1=Cc2ccc(-c3cccc(S(=O)(=O)N4CC(CO)C4)c3)cc2N=C(N)C1 [Bz-32, 2-amino-8-[3-[3-(hydroxymethyl)azetidin-1-yl]sulfonylphenyl]-N-[[4-(piperazin-1-ylmethyl)phenyl]methyl]-N-propyl-3H-1-benzazepine-4-carboxamide] | > 9000 nM | > 9000 nM | – | – |
| CCCN(CCCNC(=O)c1ccc(OCC)cc1)C(=O)C1=Cc2ccc(-c3cccc(S(=O)(=O)N4CC(CO)C4)c3)cc2N=C(N)C1 [Bz-33, 2-amino-N-(3-(4-ethoxybenzamido)propyl)-8-(3-((3-(hydroxymethyl)azetidin-1-yl)sulfonyl)phenyl)-N-propyl-3H-benzo[b]azepine-4-carboxamide] | 1430 nM | 1920 nM | – | – |
| CCCN(CCC)C(=O)C1=Cc2ccc(-c3cc(C(F)(F)F)cc(S(=O)(=O)N4CC(CN(C)C)C4)c3)cc2N=C(N)C1 [Bz-39] | – | – | 42 nM | 728 nM |
| CCCN(Cc1ccc(CN2CCNCC2)cc1)C(=O)C1=Cc2ccc(-c3cccc(S(=O)(=O)N4CC(CO)C4)c3)cc2N=C(N)C1 [Bz-49] | – | – | ≥ 9000 nM | ≥ 9000 nM |
| CCCN(OCC)C(=O)C1=Cc2ccc(-c3cccc(S(=O)(=O)N4CC(CN(C)C)C4)c3)cc2N=C(N)C1 [Bz-63] | – | – | 1270 nM | 8 nM |
| CCON(CCC(F)(F)F)C(=O)C1=Cc2ccc(-c3cccc(S(=O)(=O)N4CC(CO)C4)c3)cc2N=C(N)C1 [Bz-66] | – | – | 4610 nM | 26 nM |
| CCCN(CCC)C(=O)C1=Cc2ccc(C#CCCCNC(=O)OC(C)(C)C)cc2N=C(N)C1 [Bz-67] | – | – | 3930 nM | 2050 nM |
| CCCN(CCC)C(=O)C1=Cc2ccc(CCCCCNC(=O)OC(C)(C)C)cc2N=C(N)C1 [Bz-69] | – | – | 3210 nM | 6670 nM |
| CCCN(OCC(F)(F)F)C(=O)C1=Cc2ccc(-c3cccc(S(=O)(=O)N4CC(CO)C4)c3)cc2N=C(N)C1 [Bz-73] | – | – | 4480 nM | 120 nM |
| CCCN(CCc1ccc(OC)cc1)C(=O)C1=Cc2ccc(-c3cccc(S(=O)(=O)N4CC(CN(C)C)C4)c3)cc2N=C(N)C1 [Bz-76] | – | – | 969 nM | 786 nM |

Second part, the compound after the results:

| EC50 (human TLR7; Table 1b) | EC50 (human TLR8; Table 1b) | EC50 (human TLR7; Table 1c) | EC50 (human TLR8; Table 1c) | SMILES |
| --- | --- | --- | --- | --- |
| > 9000 nM | 341 nM | – | – | CCCN(CCC(F)(F)F)C(=O)C1=Cc2ccc(-c3cccc(S(=O)(=O)N4CC(CO)C4)c3)cc2N=C(N)C1 [Bz-31, 2-amino-8-[3-[3-(hydroxymethyl)azetidin-1-yl]sulfonylphenyl]-N-propyl-N-(3,3,3-trifluoropropyl)-3H-1-benzazepine-4-carboxamide] |
| > 9000 nM | 1040 nM | – | – | CCCN(CCCNC(=O)c1ccc(OCC)cc1)C(=O)C1=Cc2ccc(C(=O)Nc3ccccc3)cc2N=C(N)C1 [Bz-34, 2-amino-N^4-(3-(4-ethoxybenzamido)propyl)-N^8-phenyl-N^4-propyl-3H-benzo[b]azepine-4,8-dicarboxamide] |
| – | – | ≥ 9000 nM | 49 nM | CCCN(OCC)C(=O)C1=Cc2ccc(-c3cccc(S(=O)(=O)N4CC(CO)C4)c3)cc2N=C(N)C1 [Bz-42] |
| – | – | ≥ 9000 nM | 341 nM | CCCN(CCC(F)(F)F)C(=O)C1=Cc2ccc(-c3cccc(S(=O)(=O)N4CC(CO)C4)c3)cc2N=C(N)C1 [Bz-47] |
| – | – | 1430 nM | 1920 nM | CCCN(CCCNC(=O)c1ccc(OCC)cc1)C(=O)C1=Cc2ccc(-c3cccc(S(=O)(=O)N4CC(CO)C4)c3)cc2N=C(N)C1 [Bz-51] |
| – | – | ≥ 9000 nM | 1040 nM | CCCN(CCCNC(=O)c1ccc(OCC)cc1)C(=O)C1=Cc2ccc(C(=O)Nc3ccccc3)cc2N=C(N)C1 [Bz-55] |
| – | – | 4600 nM | 3070 nM | CCCN(CCC)C(=O)C1=Cc2ccc(C#CCCCN)cc2N=C(N)C1 [Bz-68] |
